Each structure is given as a SMILES string. pEC50: −log10 of the molar value.

A word on the pEC50: it is the negative decadic logarithm of the EC50, by convention in mol/L.

The test deals with human mGluR4 (Homo sapiens (Human), UniProt Q14833). Put plainly: mGluR4 potentiation assay, CHO cells transfected with human mGluR4, Ca2+-sensitive dye, EC20 agonist. In kind it is cell-based. As to conditions: potentiation of mGluR4. As for the experimental part:
The disclosed compounds and compositions can be evaluated for their ability to act as a potentiator of metabotropic glutamate receptor activity, in particular mGluR4 activity, by any suitable known methodology known in the art. For example, Chinese Hamster Ovary (CHO) cells transfected with human mGluR4 or HEK cells co-transfected with rat mGluR4 and the G-protein regulated Inwardly Rectifying Potassium channel (GIRK) were plated in clear bottom assay plates for assay in a Hamamatsu FDSS Fluorometric Plate Reader. The cells were loaded with either a Ca2+-sensitive fluorescent dye or the thallium responsive dye and the plates were washed and placed into a suitable kinetic plate reader. For human mGluR4 assays, a fluorescence baseline was established for 3-5 seconds, the disclosed compounds were then added to the cells, and the response in cells was measured. Approximately two and a half minutes later, a concentration of mGluR4 orthosteric agonist (e.g. glutamate or L-AP4) eliciting approximately 20% (EC20) of the maximal agonist response was added to the cells, and the response was measured. Two minutes later, a concentration of mGluR4 agonist (e.g. glutamate or L-AP4) eliciting 80% (EC80) of the maximal agonist response was added to the cells, and the response was measured. For rat mGluR4/GIRK experiments, a baseline was established for approximately five seconds, disclosed compounds were added, and either an EC20 or EC80 concentration of agonist was added approximately two and one half minutes later. Potentiation of the agonist response of mGluR4 by the disclosed compounds was observed as an increase in response to the EC20 concentration of agonist in the presence of compound compared to the response to agonist in the absence of compound. Similarly, antagonism of the agonist response of mGluR4 by the disclosed compounds was observed as a decrease in response to the EC80 concentration of agonist in the presence of compound compared to the response to agonist in the absence of compound.
The above described assay operated in two modes. In the first mode, a range of concentrations of the disclosed compounds are added to cells, followed by a single fixed concentration of agonist. If the compound acts as a potentiatior, an EC50 value for potentiation and a maximum extent of potentiation by the compound at this concentration of agonist is determined by non-linear curve fitting. If the compound acts as a noncompetitive antagonist, an IC50 value is determined by non-linear curve fitting. In the second mode, several fixed concentrations of the disclosed compounds are added to various wells on a plate, followed by a range in concentrations of agonist for each concentration of disclosed compound. The EC50 values for the agonist at each concentration of compound are determined by non-linear curve fitting. A decrease in the EC50 value of the agonist with increasing concentrations of the sample compound (a leftward shift of the agonist concentration-response curve) is an indication of the degree of mGluR4 potentiation at a given concentration of the sample compound. A decrease in the maximal response of the agonist with increasing concentrations of the sample compounds, with or without a rightward shift in agonist potency, is an indication of the degree of noncompetitive antagonism at mGluR4. The second mode also indicates whether the sample compounds also affect the maximum response to mGluR4 to agonists.

Setting [1] is: main compound table, species not given.
Setting [2] is: summary list repeated at the end of the table, species not stated.

human mGluR4, sequence (Q14833 33-912): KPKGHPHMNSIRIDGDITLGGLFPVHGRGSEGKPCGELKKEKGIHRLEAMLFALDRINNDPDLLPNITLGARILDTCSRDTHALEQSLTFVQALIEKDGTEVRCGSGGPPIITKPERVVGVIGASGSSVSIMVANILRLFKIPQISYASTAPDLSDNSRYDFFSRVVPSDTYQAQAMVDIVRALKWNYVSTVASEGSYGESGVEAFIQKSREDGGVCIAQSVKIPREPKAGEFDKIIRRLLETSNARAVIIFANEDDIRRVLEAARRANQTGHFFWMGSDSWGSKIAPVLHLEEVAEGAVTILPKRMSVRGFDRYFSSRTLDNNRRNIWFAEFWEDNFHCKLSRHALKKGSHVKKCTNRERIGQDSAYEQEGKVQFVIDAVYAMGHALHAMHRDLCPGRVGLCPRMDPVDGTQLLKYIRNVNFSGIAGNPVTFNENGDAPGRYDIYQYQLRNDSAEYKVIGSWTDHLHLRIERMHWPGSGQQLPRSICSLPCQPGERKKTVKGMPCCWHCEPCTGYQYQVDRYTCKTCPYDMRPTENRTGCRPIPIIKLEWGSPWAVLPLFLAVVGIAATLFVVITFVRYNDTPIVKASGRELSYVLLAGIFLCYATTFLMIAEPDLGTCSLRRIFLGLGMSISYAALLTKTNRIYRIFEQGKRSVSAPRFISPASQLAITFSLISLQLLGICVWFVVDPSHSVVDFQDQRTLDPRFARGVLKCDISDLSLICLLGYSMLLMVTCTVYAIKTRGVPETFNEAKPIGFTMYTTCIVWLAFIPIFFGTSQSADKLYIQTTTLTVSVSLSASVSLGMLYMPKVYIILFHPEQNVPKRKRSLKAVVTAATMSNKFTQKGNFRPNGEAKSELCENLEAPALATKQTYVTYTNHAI

As for `O=C(c1nsc2cc(Nc3n[nH]c4cccnc34)ccc12)N1CCC(N2CCOCC2)C1` (stereo not drawn) [Example 14, (6-((1H-pyrazolo[4,3-b]pyridin-3-yl)amino)benzo[d]isothiazol-3-yl) (3-morpholinopyrrolidin-1-yl)methanone], the negative-log EC50 (pEC50) is 5.46 under setting [1] and 5.46 under setting [2].

Turning to `c1cnc2c(Nc3ccc4c(C5CC5)nsc4c3)n[nH]c2n1` [Example 37, 3-cyclopropyl-N-(1H-pyrazolo [3,4-b]pyrazin-3-yl)benzo [d]isothiazol-6-amine], the pEC50 is 7.21 under setting [1] and 7.21 under setting [2].

In the case of `CN(C(=O)c1nsc2cc(Nc3n[nH]c4cccnc34)ccc12)C1CC(F)(F)C1` [Example 15, 6-((1H-pyrazolo[4,3-b]pyridin-3-yl)amino)-N-(3,3-difluorocyclobutyl)-N-methylbenzo[d] isothiazole-3-carboxamide], the pEC50 is 6.79 under setting [1] and 6.79 under setting [2].

With `c1cnc2c(Nc3ccc4c(C5CC5)nsc4c3)n[nH]c2c1` [Example 36, 3-cyclopropyl-N-(1H-pyrazolo [4,3-b]pyridin-3-yl) benzo[d]isothiazol-6-amine], the negative logarithm of the EC50 (pEC50) is, setting by setting: under setting [1], 7.11; under setting [2], 7.11.

For the compound `CC(C)(O)c1nsc2cc(Nc3n[nH]c4cccnc34)ccc12` [Example 38, 2-(6-((1H-pyrazolo [4,3-b]pyridin-3-yl)amino)benzo[d]isothiazol-3-yl)propan-2-ol], the pEC50 under setting [1] was 5.99 and the pEC50 under setting [2] was 5.99.

On to `CC(C)(C)C1CCN(Cc2nsc3cc(Nc4n[nH]c5cccnc45)cnc23)CC1` [Example 56, 3-((4-(tert-butyl)piperidin-1-yl)methyl)-N-(1H-pyrazolo[4,3-b]pyridin-3-yl)isothiazolo[4,5-b] pyridin-6-amine], for which the pEC50 reads like this: under setting [1], 5.86; under setting [2], 5.86.

As to `Cc1nsc2ccc(Nc3n[nH]c4cccnc34)cc12` [Example 1, 3-methyl-N-(1H-pyrazolo[4,3-b]pyridin-3-yl)benzo[d]isothiazol-5-amine], the negative-log EC50 (pEC50) was 6.73 under setting [1] and 6.73 under setting [2].

For `CC1(C)CN(Cc2nsc3cc(Nc4n[nH]c5cccnc45)cnc23)CCO1` [Example 60], the pEC50 under setting [1] was 6.83 and the pEC50 under setting [2] was 6.83.

Consider `c1cnc2c(Nc3cnc4c(CN5CCOCC5)nsc4c3)n[nH]c2c1` [Example 54, 3-(morpholinomethyl)-N-(1H-pyrazolo[4,3-b]pyridin-3-yl)isothiazolo[4,5-b] pyridin-6-amine], for which the pEC50 under setting [1] was 6.20 and the pEC50 under setting [2] is 6.20.

Turning to `FC1(F)CCCN(Cc2nsc3cc(Nc4n[nH]c5ncccc45)cnc23)C1` [Example 62, 3-((3,3-difluoropiperidin-1-yl)methyl)-N-(1H-pyrazolo[3,4-b]pyridin-3-yl)isothiazolo[4,5-b] pyridin-6-amine], the pEC50 runs as follows: under setting [1], 7.00; under setting [2], 7.00.

For the compound `O=C(c1nsc2cc(Nc3n[nH]c4cccnc34)ccc12)N1CCS(=O)(=O)CC1` [Example 8, (6-((1H-pyrazolo [4,3-b]pyridin-3-yl)amino)benzo[d]isothiazol-3-yl)(1,1-dioxido-thiomorpholino) methanone], the pEC50 reads like this: under setting [1], 6.87; under setting [2], 6.87.

Consider `Cc1nsc2cc(Nc3n[nH]c4cccnc34)cnc12` [Example 39, 3-methyl-N-(1H-pyrazolo [4,3-b]pyridin-3-yl)isothiazolo[4,5-b] pyridin-6-amine], for which the pEC50 is 6.80 under setting [1] and 6.80 under setting [2].

Regarding `O=C(c1nsc2cc(Nc3n[nH]c4cccnc34)ccc12)N1CCC(F)CC1` [Example 20, (6-((1H-pyrazolo [4,3-b]pyridin-3-yl)amino)benzo [d]isothiazol-3-yl) (4-fluoropiperidin-1-yl)methanone], the pEC50 is 6.60 under setting [1] and 6.60 under setting [2].

For the compound `CCC(C)c1nsc2cc(Nc3n[nH]c4cccnc34)cnc12` (stereo not drawn) [Example 40, 3-(sec-butyl)-N-(1H-pyrazolo[4,3-b]pyridin-3-yl)isothiazolo[4,5-b] pyridin-6-amine], the pEC50 reads like this: under setting [1], 7.27; under setting [2], 7.27.

Turning to `O=C(c1nsc2cc(Nc3n[nH]c4cccnc34)ccc12)N1CCC(C(F)(F)F)CC1` [Example 21, (6-((1H-pyrazolo [4,3-b]pyridin-3-yl)amino)benzo[d]isothiazol-3-yl) (4-(trifluoromethyl)piperidin-1-yl) methanone], the pEC50 under setting [1] was 7.30 and the pEC50 under setting [2] was 7.30.

As for `CC(C)(C)Cc1nsc2cc(Nc3n[nH]c4ncccc34)cnc12` [Example 28, 3-neopentyl-N-(1H-pyrazolo[3,4-b]pyridin-3-yl) isothiazolo[4,5-b] pyridin-6-amine], the pEC50 was 6.92 under setting [1] and 6.92 under setting [2].

As to `CC(C)(C)Cc1nsc2cc(Nc3n[nH]c4ncccc34)ccc12` [Example 22, 3-neopentyl-N-(1H-pyrazolo[3,4-b]pyridin-3-yl)benzo[d] isothiazol-6-amine], the pEC50 reads like this: under setting [1], 6.05; under setting [2], 6.05.

Regarding `OCc1nsc2cc(Nc3n[nH]c4cccnc34)cnc12` [Example 47, (6-((1H-pyrazolo[4,3-b]pyridin-3-yl)amino)isothiazolo[4,5-b]pyridin-3-yl)methanol], the pEC50 is 5.97 under setting [1] and 5.97 under setting [2].

Consider `CN1CCC2(CCN(C(=O)c3nsc4cc(Nc5n[nH]c6nccnc56)ccc34)CC2)C1=O` [Example 31, 8-(6-((1H-pyrazolo[3,4-b]pyrazin-3-yl)amino)benzo[d]isothiazole-3-carbonyl)-2-methyl-2,8-diazaspiro[4.5]decan-1-one], for which the pEC50 runs as follows: under setting [1], 5.92; under setting [2], 5.92.

As to `O=C(c1nsc2cc(Nc3n[nH]c4cccnc34)ccc12)N1CCOCC1` [Example 6, (6-((1H-pyrazolo [4,3-b]pyridin-3-yl)amino)benzo[d]isothiazol-3-yl)(morpholino) methanone], the pEC50 is, setting by setting: under setting [1], 6.52; under setting [2], 6.52.

On to `O=C(c1nsc2cc(Nc3n[nH]c4nccnc34)ccc12)N1CCC(F)(F)CC1` [Example 33, (6-((1H-pyrazolo[3,4-b]pyrazin-3-yl)amino)benzo[d]isothiazol-3-yl)(4,4-difluoropiperidin-1-yl) methanone], for which the negative-log EC50 (pEC50) is 6.08 under setting [1] and 6.08 under setting [2].

Turning to `c1cnc2c(Nc3ccc4c(-c5ccsc5)nsc4c3)n[nH]c2c1` [Example 45, N-(1H-pyrazolo[4,3-b]pyiridn-3-yl)-3-(thiophen-3-yl)benzo[d] isothiazol-6-amine], the negative-log EC50 (pEC50) reads like this: under setting [1], 6.67; under setting [2], 6.67.

Consider `CC(C)(C)Cc1nsc2cc(Nc3n[nH]c4cccnc34)ccc12` [Example 2, 3-neopentyl-N-(1H-pyrazolo[4,3-b]pyridin-3-yl)benzo[d] isothiazol-6-amine], for which the pEC50 under setting [1] is 6.55 and the pEC50 under setting [2] was 6.55.

As for `O=C(C1CCOCC1)N1CCC(c2nsc3cc(Nc4n[nH]c5cccnc45)ccc23)CC1` [Example 72, (4-(6-((1H-pyrazolo [4,3-b]pyridin-3-yl)amino)benzo[d]isothiazol-3-yl)piperidin-1-yl) (tetrahydro-2H-pyran-4-yl)methanone], the pEC50 under setting [1] was 5.92 and the negative logarithm of the EC50 (pEC50) under setting [2] is 5.92.

As for `O=C(NC1CC(F)(F)C1)c1nsc2cc(Nc3n[nH]c4nccnc34)ccc12` [Example 30, 6-((1H-pyrazolo[3,4-b]pyrazin-3-yl)amino)-N-(3,3-difluorocyclobutyl) benzo[d] isothiazole-3-carboxamide], the pEC50 is, setting by setting: under setting [1], 7.37; under setting [2], 7.37.

With `CCCc1nsc2cc(Nc3n[nH]c4ncccc34)ccc12` [Example 26, 3-propyl-N-(1H-pyrazolo[3,4-b]pyridin-3-yl)benzo[d]isothiazol-6-amine], the negative-log EC50 (pEC50) by setting is: under setting [1], 6.66; under setting [2], 6.66.

For the compound `c1ccc(-c2nsc3cc(Nc4n[nH]c5cccnc45)ccc23)cc1` [Example 43, 3-phenyl-N-(1H-pyrazolo [4,3-b]pyridin-3-yl)benzo[d]isothiazol-6-amine], the pEC50 runs as follows: under setting [1], 6.65; under setting [2], 6.65.

The record behind these values is patent US10221172B2, “Benzothiazole and benzisothiazole-substituted compounds as mGluR4 allosteric potentiators, compositions, and methods of treating neurological dysfunction” (Vanderbilt University, priority 2015, dated 2019).
